Source: US20240166617A1, “PHOSPHOINOSITIDE 3 KINASE BETA INHIBITORS AND COMPOSITIONS AND METHODS THEREOF” (Geode Therapeutics Inc., priority 2021, published 2024)
Read-outs that look alike come from different tables or passages of the source.

Tested on: phosphorylation of AKT in HCC70 cells
Experiment: Cellular assay: phosphorylation of AKT in HCC70 cells (western blotting)
Format: cell-based
Conditions: Homo sapiens, HCC70, 1 h
Method: Cellular activity of PI3Kβ inhibitors was determined by quantifying the phosphorylation of AKT in HCC70 cells. AKT phosphorylated at Ser473 and Thr308 were measured using western blotting and specific primary antibodies from Cell Signaling (CST), Danvers, MA. On day 1, HCC70 cells (ATCC #CRL-2315) were seeded into Falcon 12-well cell Culture Plate (Corning #353043) at 100,000 cells per well, in 1 ml complete culture medium (RPMI-1640, GIBCO #11875093) containing 10% heat inactivated FBS (GIBCO #10438026), 1% Pen-Strep (GIBCO #15140122) and incubated at 37° AC, 5% CO2 overnight. On day 2, compound (500 nM) or DMSO (0.1%, Sigma Aldrich #8418) was added and cells were further incubated for 60 min at 37° AC, 5% CO2 in a total volume of 1 ml fresh medium.
At the end of the cell treatment period, media were removed by aspiration and adherent cells were lysed in 100 uL RIPA buffer (Sigma Aldrich #R0278). Equal volume (15 uL) of proteins was resolved by SDS-PAGE and transferred to PVDF (Millipore #IPFL00010) membrane for immunoblot analysis. Primary antibodies to the following proteins were used for immunoblotting: phosphor-AKT (Ser473) (CST #4060), phosphor-AKT (Thr308) (CST #2965), total AKT (CST #9272). Secondary goat anti-rabbit IgG fluorophore conjugated antibody (Invitrogen #A21109) was used to visualize the indicated proteins on an Odyssey CLx imaging system (Li-Cor). Quantification of band intensities was performed using Odyssey 3.0 software. Inhibition of Akt activity was calculated by band intensities using the formula: […]
Index was evaluated by % of AI. Data represent Index+(20˜60%), ++(60%˜80%), +++(80%˜90%), and ++++>90%.

[1] = HCC70 cells, compound 500 nM, 60 min, inhibition of Akt activity from band intensities, read-out: Index of AI (HCC70) p-AKT Thr 308
[2] = HCC70 cells, compound 500 nM, 60 min, inhibition of Akt activity from band intensities, read-out: Index of AI (HCC70) p-AKT ser 473

`C[C@H]1Cc2c(F)cc(F)cc2N1Cc1cc(C(=O)N(C)C)cc2c(=O)cc(N3CCOCC3)oc12` (single isomer, unassigned) [Compound 64] was tested, and the inhibition at 0.5 µM [1] was over 90% and the inhibition at 0.5 µM [2] was over 90%.
`C[C@@H]1Cc2c(F)cc(F)cc2N1Cc1cc(C(=O)N(C)C)cc2c(=O)cc(N3CCOCC3)oc12` (single isomer, unassigned) [Compound 65] was tested, and the inhibition at 0.5 µM [1] was 20 to 60% and the inhibition at 0.5 µM [2] was 20 to 60%.
Molecule `C[C@H]1Cc2c(F)cccc2N1Cc1cc(C(=O)N(C)C)cc2c(=O)cc(N3CCOCC3)oc12` (single isomer, unassigned) [Compound 102] has an inhibition at 0.5 µM [1] of over 90% and an inhibition at 0.5 µM [2] of over 90%.
In the case of `O=c1cc(N2CCOCC2)oc2c(CNc3cc(F)cc(F)c3)cc(N3CCOCC3)cc12` [Compound 1, 8-(((3,5-difluorophenyl)amino)methyl)-2,6-dimorpholino-4H-chromen-4-one], the inhibition at 0.5 µM [1] is reported as 60 to 80% and the inhibition at 0.5 µM [2] is reported as 60 to 80%.
`CN(C)c1cc(CNc2cc(F)cc(F)c2)c2oc(N3CCOCC3)cc(=O)c2c1` [Compound 2, 8-(((3,5-difluorophenyl)amino)methyl)-6-(dimethylamino)-2-morpholino-4H-chromen-4-one] was tested, and the inhibition at 0.5 µM [1] was 60 to 80% and the inhibition at 0.5 µM [2] was 60 to 80%.
`N#Cc1cc(CNc2cc(F)cc(F)c2)c2oc(N3CCOCC3)cc(=O)c2c1` [Compound 3, 8-(((3,5-difluorophenyl)amino)methyl)-2-morpholino-4-oxo-4H-chromene-6-carbonitrile] was tested, and the inhibition at 0.5 µM [1] was 60 to 80% and the inhibition at 0.5 µM [2] was 60 to 80%.
For `CCOc1cc(CNc2cc(F)cc(F)c2)c2oc(N3CCOCC3)cc(=O)c2c1` [Compound 4, 8-(((3,5-difluorophenyl)amino)methyl)-6-ethoxy-2-morpholino-4H-chromen-4-one], the inhibition at 0.5 µM [1] was 60 to 80% and the inhibition at 0.5 µM [2] was 60 to 80%.
Molecule `C#Cc1cc(CNc2cc(F)cc(F)c2)c2oc(N3CCOCC3)cc(=O)c2c1` [Compound 5, 8-(((3,5-difluorophenyl)amino)methyl)-6-ethynyl-2-morpholino-4H-chromen-4-one] has an inhibition at 0.5 µM (read-out: Index of AI (HCC70) p-AKT Thr 308) of 60 to 80% and an inhibition at 0.5 µM (read-out: Index of AI (HCC70) p-AKT ser 473) of 60 to 80%.
`O=c1cc(N2CCOCC2)oc2c(CNc3cc(F)cc(F)c3)cc(C3CC3)cc12` [Compound 6, 6-cyclopropyl-8-(((3,5-difluorophenyl)amino)methyl)-2-morpholino-4H-chromen-4-one] showed an inhibition at 0.5 µM [1] of 60 to 80% and an inhibition at 0.5 µM [2] of 60 to 80%.
`CN(C)C(=O)Nc1cc(CNc2cc(F)cc(F)c2)c2oc(N3CCOCC3)cc(=O)c2c1` [Compound 7, 3-(8-(((3,5-difluorophenyl)amino)methyl)-2-morpholino-4-oxo-4H-chromen-6-yl)-1,1-dimethylurea] was tested, and the inhibition at 0.5 µM [1] was 60 to 80% and the inhibition at 0.5 µM [2] was 60 to 80%.
`CC(=O)Nc1cc(CNc2cc(F)cc(F)c2)c2oc(N3CCOCC3)cc(=O)c2c1` [Compound 8, N-(8-(((3,5-difluorophenyl)amino)methyl)-2-morpholino-4-oxo-4H-chromen-6-yl)acetamide] was tested, and the inhibition at 0.5 µM [1] was 60 to 80% and the inhibition at 0.5 µM [2] was 60 to 80%.
`CC(=O)N(C)c1cc(C(C)Nc2cc(F)cc(F)c2)c2oc(N3CCOCC3)cc(=O)c2c1` (centres unmarked) [Compound 9, N-(8-(1-((3,5-difluorophenyl)amino)ethyl)-2-morpholino-4-oxo-4H-chromen-6-yl)-N-methylacetamide] gave an inhibition at 0.5 µM [1] of 80 to 90% and an inhibition at 0.5 µM [2] of 80 to 90%.
For `CCC(=O)Nc1cc(C(C)Nc2cc(F)cc(F)c2)c2oc(N3CCOCC3)cc(=O)c2c1` (centres unmarked) [Compound 11, N-(8-(1-((3,5-difluorophenyl)amino)ethyl)-2-morpholino-4-oxo-4H-chromen-6-yl)propionamide], the inhibition at 0.5 µM [1] was over 90% and the inhibition at 0.5 µM [2] was over 90%.
`CC(Nc1cc(F)cc(F)c1)c1cc(N=C(N)N)cc2c(=O)cc(N3CCOCC3)oc12` (centres unmarked) [Compound 14, 2-(8-(1-((3,5-difluorophenyl)amino)ethyl)-2-morpholino-4-oxo-4H-chromen-6-yl)guanidine] showed an inhibition at 0.5 µM [1] of 20 to 60% and an inhibition at 0.5 µM [2] of 20 to 60%.
Molecule `CC(Nc1cc(F)cc(F)c1)c1cc(S(=O)(=O)N2CC(N)C2)cc2c(=O)cc(N3CCOCC3)oc12` (centres unmarked) [Compound 17, 6-((3-aminoazetidin-1-yl)sulfonyl)-8-(1-((3,5-difluorophenyl)amino)ethyl)-2-morpholino-4H-chromen-4-one] has an inhibition at 0.5 µM [1] of 60 to 80% and an inhibition at 0.5 µM [2] of 60 to 80%.
`CC(Nc1cc(F)cc(F)c1)c1cc(NC2=NCCN2)cc2c(=O)cc(N3CCOCC3)oc12` (centres unmarked) [Compound 20, 8-(1-((3,5-difluorophenyl)amino)ethyl)-6-((4,5-dihydro-1H-imidazol-2-yl)amino)-2-morpholino-4H-chromen-4-one] gave an inhibition at 0.5 µM [1] of 60 to 80% and an inhibition at 0.5 µM [2] of 60 to 80%.
Work on `CC(Nc1cc(F)cc(F)c1)c1cc(NC(=O)CC#N)cc2c(=O)cc(N3CCOCC3)oc12` (centres unmarked) [Compound 22, 2-cyano-N-(8-(1-((3,5-difluorophenyl)amino)ethyl)-2-morpholino-4-oxo-4H-chromen-6-yl)acetamide] yielded an inhibition at 0.5 µM [1] of over 90% and an inhibition at 0.5 µM [2] of over 90%.
Molecule `C/C(O)=C(\C#N)C(=O)Nc1cc(C(C)Nc2cc(F)cc(F)c2)c2oc(N3CCOCC3)cc(=O)c2c1` (centres unmarked) [Compound 23, (Z)-2-cyano-N-(8-(1-((3,5-difluorophenyl)amino)ethyl)-2-morpholino-4-oxo-4H-chromen-6-yl)-3-hydroxybut-2-enamide] has an inhibition at 0.5 µM [1] of 60 to 80% and an inhibition at 0.5 µM [2] of 60 to 80%.
Work on `CC(Nc1cc(F)cc(F)c1)c1cc(CC(=O)N(C)C)cc2c(=O)cc(N3CCOCC3)oc12` (centres unmarked) [Compound 24, 2-(8-(1-((3,5-difluorophenyl)amino)ethyl)-2-morpholino-4-oxo-4H-chromen-6-yl)-N,N-dimethylacetamide] yielded an inhibition at 0.5 µM [1] of over 90% and an inhibition at 0.5 µM [2] of over 90%.
`CC(Nc1cc(F)cc(F)c1)c1cc(C(=O)N2CC3(C2)CS(=O)(=O)C3)cc2c(=O)cc(N3CCOCC3)oc12` (centres unmarked) [Compound 28, 8-(1-((3,5-difluorophenyl)amino)ethyl)-6-(2,2-dioxido-2-thia-6-azaspiro[3.3]heptane-6-carbonyl)-2-morpholino-4H-chromen-4-one] showed an inhibition at 0.5 µM [1] of 60 to 80% and an inhibition at 0.5 µM [2] of 60 to 80%.
Work on `CCC(Nc1cc(F)cc(F)c1)c1cc(C(=O)N(C)C)cc2c(=O)cc(N3CCOCC3)oc12` (centres unmarked) [Compound 31, 8-(1-((3,5-difluorophenyl)amino)propyl)-N,N-dimethyl-2-morpholino-4-oxo-4H-chromene-6-carboxamide] yielded an inhibition at 0.5 µM [1] of over 90% and an inhibition at 0.5 µM [2] of over 90%.
`CN(C)C(=O)c1cc(CN2CCc3cccc(Cl)c32)c2oc(N3CCOCC3)cc(=O)c2c1` [Compound 36, 8-((7-chloroindolin-1-yl)methyl)-N,N-dimethyl-2-morpholino-4-oxo-4H-chromene-6-carboxamide] showed an inhibition at 0.5 µM [1] of over 90% and an inhibition at 0.5 µM [2] of over 90%.
Work on `CC(c1cc(C(=O)N(C)C)cc2c(=O)cc(N3CCOCC3)oc12)N1CCc2c(F)cc(F)cc21` (centres unmarked) [Compound 37, 8-(1-(4,6-difluoroindolin-1-yl)ethyl)-N,N-dimethyl-2-morpholino-4-oxo-4H-chromene-6-carboxamide] yielded an inhibition at 0.5 µM [1] of 80 to 90% and an inhibition at 0.5 µM [2] of 80 to 90%.
In the case of `CN(C)CCN(C)C(=O)c1cc(CN2CCc3c(F)cc(F)cc32)c2oc(N3CCOCC3)cc(=O)c2c1` [Compound 40, 8-((4,6-difluoroindolin-1-yl)methyl)-N-(2-(dimethylamino)ethyl)-N-methyl-2-morpholino-4-oxo-4H-chromene-6-carboxamide], the inhibition at 0.5 µM [1] is reported as over 90% and the inhibition at 0.5 µM [2] is reported as over 90%.
With `O=C(c1cc(CN2CCc3c(F)cc(F)cc32)c2oc(N3CCOCC3)cc(=O)c2c1)N1CCOCC1` [Compound 41, 8-((4,6-difluoroindolin-1-yl)methyl)-6-(morpholine-4-carbonyl)-2-morpholino-4H-chromen-4-one] the inhibition at 0.5 µM [1] was 80 to 90% and the inhibition at 0.5 µM [2] was 80 to 90%.
Molecule `CN(C)C1CCN(C(=O)c2cc(CN3CCc4c(F)cc(F)cc43)c3oc(N4CCOCC4)cc(=O)c3c2)C1` (centres unmarked) [Compound 43, 8-((4,6-difluoroindolin-1-yl)methyl)-6-(3-(dimethylamino)pyrrolidine-1-carbonyl)-2-morpholino-4H-chromen-4-one] has an inhibition at 0.5 µM [1] of 80 to 90% and an inhibition at 0.5 µM [2] of 80 to 90%.
Work on `O=C(c1cc(CN2CCc3c(F)cc(F)cc32)c2oc(N3CCOCC3)cc(=O)c2c1)N1CCC1` [Compound 45, 6-(azetidine-1-carbonyl)-8-((4,6-difluoroindolin-1-yl)methyl)-2-morpholino-4H-chromen-4-one] yielded an inhibition at 0.5 µM [1] of over 90% and an inhibition at 0.5 µM [2] of over 90%.
With `CN(C)C1CN(C(=O)c2cc(CN3CCc4c(F)cc(F)cc43)c3oc(N4CCOCC4)cc(=O)c3c2)C1` [Compound 46, 8-((4,6-difluoroindolin-1-yl)methyl)-6-(3-(dimethylamino)azetidine-1-carbonyl)-2-morpholino-4H-chromen-4-one] the inhibition at 0.5 µM [1] was 80 to 90% and the inhibition at 0.5 µM [2] was 80 to 90%.
